In data set [1] the target is T1, Glucose-6-phosphate 1-dehydrogenase (Homo sapiens, UniProt P11413). Put plainly: Inhibition of recombinant full length human G6PD expressed in Escherichia coli HB351 using G6P as substrate in presence of NADP+ by spectrofluorimetric analysis.
Data set [2] can be described thus: Selectivity index, ratio of Ki for recombinant full length human G6PD to Ki for Plasmodium falciparum G6PD-6PGL.
Data set [3] in a line: Cytotoxicity against human HepG2 cells assessed as cell survival at 0.2 to 1 mM after 24 hrs by EZ4U staining-based spectrophotometric analysis relative to control. The conditions noted are these: read-out: Survival.
Data set [4] has as its system Plasmodium falciparum. Put plainly: Antiparasitic activity against Plasmodium falciparum Dd2 clone MRA-150 synchronized ring stage after 48 hrs by PicoGreen dye based microfluorimetric analysis. Type of data set: functional, organism-based. The note with it: Dd2 clone MRA-150, 48 h.
In data set [5] the target is T2, Bifunctional glucose-6-phosphate 1-dehydrogenase/6-phosphogluconolactonase (Plasmodium falciparum (isolate 3D7), UniProt Q8IKU0).
T2 sequence (Q8IKU0 whole entry): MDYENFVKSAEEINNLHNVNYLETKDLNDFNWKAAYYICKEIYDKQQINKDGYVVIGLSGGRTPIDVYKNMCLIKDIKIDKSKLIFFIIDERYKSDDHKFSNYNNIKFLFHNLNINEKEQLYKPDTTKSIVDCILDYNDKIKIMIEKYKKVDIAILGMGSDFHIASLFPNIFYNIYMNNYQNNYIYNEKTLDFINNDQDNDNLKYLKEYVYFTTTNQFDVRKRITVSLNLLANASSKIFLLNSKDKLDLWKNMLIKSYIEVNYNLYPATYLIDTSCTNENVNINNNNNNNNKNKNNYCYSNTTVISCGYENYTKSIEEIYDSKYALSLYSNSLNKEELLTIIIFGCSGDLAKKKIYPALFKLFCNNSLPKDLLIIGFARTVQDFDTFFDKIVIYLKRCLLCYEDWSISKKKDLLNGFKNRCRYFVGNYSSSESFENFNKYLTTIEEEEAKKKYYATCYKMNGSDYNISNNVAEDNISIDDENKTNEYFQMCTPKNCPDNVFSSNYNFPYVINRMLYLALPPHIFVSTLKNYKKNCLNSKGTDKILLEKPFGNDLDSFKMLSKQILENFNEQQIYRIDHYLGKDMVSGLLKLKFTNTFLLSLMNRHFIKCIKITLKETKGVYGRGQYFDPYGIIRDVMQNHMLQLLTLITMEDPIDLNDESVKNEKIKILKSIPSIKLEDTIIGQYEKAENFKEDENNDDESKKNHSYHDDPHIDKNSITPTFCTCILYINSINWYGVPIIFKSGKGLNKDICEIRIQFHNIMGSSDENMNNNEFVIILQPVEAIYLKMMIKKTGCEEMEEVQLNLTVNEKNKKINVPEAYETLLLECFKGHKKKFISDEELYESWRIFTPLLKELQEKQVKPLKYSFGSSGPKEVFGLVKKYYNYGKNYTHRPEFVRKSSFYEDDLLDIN
Put plainly: Inhibition of Plasmodium falciparum G6PD-6PGL using G6P as substrate in presence of NADP+ by spectrofluorimetric analysis.

Data set [6] in a line: Cytotoxicity against human HepG2 cells assessed as cell viability at 1.5 to 2 mM after 24 hrs by EZ4U staining-based spectrophotometric analysis relative to control. The note with it: read-out: Activity.
Data set [7] addresses T2, Bifunctional glucose-6-phosphate 1-dehydrogenase/6-phosphogluconolactonase. The data set is described as follows: Competitive inhibition of Plasmodium falciparum G6PD-6PGL using G6P as substrate in presence of NADP+ by Lineweaver-Burk plot analysis.
The target of data set [8] is T1, Glucose-6-phosphate 1-dehydrogenase. Put plainly: Competitive inhibition of recombinant full length human G6PD expressed in Escherichia coli HB351 using G6P as substrate in presence of NADP+ by Lineweaver-Burk plot analysis.

Structures are written as SMILES.

T1 sequence (P11413 whole entry): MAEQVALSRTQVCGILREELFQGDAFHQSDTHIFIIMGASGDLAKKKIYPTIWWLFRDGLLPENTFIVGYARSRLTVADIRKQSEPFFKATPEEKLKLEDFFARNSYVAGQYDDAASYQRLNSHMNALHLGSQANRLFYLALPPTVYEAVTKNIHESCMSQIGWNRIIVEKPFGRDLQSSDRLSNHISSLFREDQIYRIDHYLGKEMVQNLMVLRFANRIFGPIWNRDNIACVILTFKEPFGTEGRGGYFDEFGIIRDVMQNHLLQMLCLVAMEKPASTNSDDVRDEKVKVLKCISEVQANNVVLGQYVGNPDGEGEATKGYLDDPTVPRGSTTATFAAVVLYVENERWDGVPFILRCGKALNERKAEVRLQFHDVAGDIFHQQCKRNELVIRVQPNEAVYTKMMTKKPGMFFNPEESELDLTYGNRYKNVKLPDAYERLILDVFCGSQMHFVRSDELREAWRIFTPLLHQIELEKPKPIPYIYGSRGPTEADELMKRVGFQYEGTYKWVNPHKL

For `CO[C@H]1O[C@H](CNS(=O)(=O)CCN)[C@@H](O)[C@H](O)[C@H]1O`, the Ki (usually a measure of affinity in units of concentration, obtained from inhibition or displacement) in data set [1] is > 400 µM; in data set [5] it was 22.8 µM. For the same molecule, the Ratio Ki in data set [2] is > 18. For the same molecule, the viability at 24 h, up to 1000 µM in data set [3] is > 80%. Further, the IC50 – broadly, the concentration at which inhibition is half-maximal – in data set [4] turned out to be 1470 µM.
Take `CO[C@H]1O[C@H](CSCCN)[C@@H](O)[C@H](O)[C@H]1O`: the Ki is > 2000 µM in data set [1] and 76.1 µM in data set [5]. Also, the Ratio Ki in data set [2] was > 26. Also, the viability at 24 h, up to 1000 µM in data set [3] was > 80%. Also, the IC50 in data set [4] came out at 1750 µM.
`CO[C@H]1O[C@H](CS(=O)(=O)CCCNC(=N)N)[C@@H](O)[C@H](O)[C@H]1O`: the Ki in data set [1] was found to be 22.3 µM; in data set [5] it was 42.9 µM. In data set [6], the viability at 24 h, 2000 µM is < 80%. Further, the Ratio Ki in data set [2] worked out at 0.5. In addition, the viability at 24 h, up to 1000 µM in data set [3] was > 80%. This molecule yielded an IC50 in data set [4] of 1570 µM.
Regarding `CCN1CCC[C@@H]1CNC(=O)c1ccc2c(c1)NC(=O)/C(=C/c1ccccc1F)S2`, the IC50 is 0.9 µM in data set [7] and > 80 µM in data set [8].
Turning to `CO[C@H]1O[C@H](CNS(=O)(=O)CCNC(=N)N)[C@@H](O)[C@H](O)[C@H]1O`, the Ki in data set [1] was determined as 16.8 µM; in data set [5], 32.4 µM. For the same molecule, in data set [6], the viability at 24 h, 2000 µM is < 80%. Besides, the Ratio Ki in data set [2] came out at 0.5. In addition, the viability at 24 h, up to 1000 µM in data set [3] was > 80%. Also, in data set [4], the IC50 turned out to be 330 µM.
Consider `CO[C@H]1O[C@H](CSCCNC(=N)N)[C@@H](O)[C@H](O)[C@H]1O`, for which the values for the Ki in data set [1] and in data set [5] were > 200 µM and 45.6 µM, respectively. Besides, the Ratio Ki in data set [2] was > 4.4. In addition, the viability at 24 h, up to 1000 µM in data set [3] was > 80%. In data set [4], this molecule showed an IC50 of 590 µM.
For the molecule `CO[C@H]1O[C@H](CS(=O)(=O)CCCN)[C@@H](O)[C@H](O)[C@H]1O`, the Ki in data set [1] was found to be 35.4 µM; in data set [5] it was 34.4 µM. Moreover, the viability at 24 h, 2000 µM in data set [6] was < 80%. Also, the Ratio Ki in data set [2] came to 1. Also, in data set [3], the viability at 24 h, up to 1000 µM was > 80%. Moreover, the half-maximal inhibitory concentration (IC50) in data set [4] was > 2000 µM.
With `CO[C@H]1O[C@H](CSCCCN)[C@@H](O)[C@H](O)[C@H]1O`, the results for the Ki in data set [1] and in data set [5] were 129 µM and 289 µM, respectively. Besides, the viability at 24 h, 2000 µM in data set [6] was < 80%. In addition, the Ratio Ki in data set [2] stood at 0.4. Moreover, in data set [3], the viability at 24 h, up to 1000 µM is > 80%. In data set [4], the IC50 is > 2000 µM.
For the molecule `CO[C@H]1O[C@H](CS(=O)(=O)CCC#N)[C@@H](O)[C@H](O)[C@H]1O`, the Ki in data set [1] was > 200 µM; in data set [5], 68.8 µM. Moreover, the Ratio Ki in data set [2] was > 2.9. Moreover, in data set [3], the viability at 24 h, up to 1000 µM was > 80%. This molecule yielded an IC50 in data set [4] of 960 µM.
In the same order, the values of `CO[C@H]1O[C@H](CSCCC#N)[C@@H](O)[C@H](O)[C@H]1O` are > 200 µM, 259 µM, > 0.8, > 80% and 1020 µM.
For the molecule `CCN1CCC[C@@H]1CNC(=O)c1ccc2c(c1)NC(=O)c1cccc(C)c1S2`, the IC50 in data set [7] was 0.19 µM; in data set [8], > 80 µM.

These data come from ChEMBL document CHEMBL4145500, “First homology model of Plasmodium falciparum glucose-6-phosphate dehydrogenase: Discovery of selective substrate analog-based inhibitors as novel antimalarial agents” (Eur J Med Chem, 2018).
